Experimental data taken from publication PMC4270767 (PLoS ONE, 2014).
Where “and” joins values, the source holds several entries; their conditions need not be identical. Equal values may be shown once. Where a name gives a salt, the structure may show the parent alone. Read-outs that look alike come from different tables or passages of the source.

Assays:
MtSerB2 [1] = molecular target: T1, MtSerB2 (Mycobacterium tuberculosis, UniProt O53289); type: biochemical, M. tuberculosis; details: for effect of divalent cation on MtSerB2 activity: relative to Mg^2+
MtSerB2 [2] = molecular target: T1, MtSerB2; experiment: Effects of added amino acids on MtSerB2 phosphatase activity; type: biochemical, M. tuberculosis; details: for % activation or IC50: amino acids without effect
MtSerB2 [3] = molecular target: T1, MtSerB2; details: Superdex S200, samples pre-equilibrated 1 h
MtSerB2 [4] = molecular target: T1, MtSerB2; experiment: Inhibition of MtSerB2 hydrolysis of L-phosphoserine (malachite green); type: biochemical, M. tuberculosis
[5] = molecular target: PSP domain of MtSerB2 (PSPD) (Mycobacterium tuberculosis, UniProt O53289); experiment: biochemical; set-up: species or system M. tuberculosis
Sequence of PSP domain of MtSerB2 (PSPD) (O53289 165-409 limits assumed): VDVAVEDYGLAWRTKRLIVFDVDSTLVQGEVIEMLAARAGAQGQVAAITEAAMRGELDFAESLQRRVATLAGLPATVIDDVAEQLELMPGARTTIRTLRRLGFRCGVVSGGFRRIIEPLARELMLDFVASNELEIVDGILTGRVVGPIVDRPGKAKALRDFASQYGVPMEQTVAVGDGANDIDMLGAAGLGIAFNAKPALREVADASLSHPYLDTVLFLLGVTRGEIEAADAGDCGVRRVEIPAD

T1 sequence (O53289 whole entry): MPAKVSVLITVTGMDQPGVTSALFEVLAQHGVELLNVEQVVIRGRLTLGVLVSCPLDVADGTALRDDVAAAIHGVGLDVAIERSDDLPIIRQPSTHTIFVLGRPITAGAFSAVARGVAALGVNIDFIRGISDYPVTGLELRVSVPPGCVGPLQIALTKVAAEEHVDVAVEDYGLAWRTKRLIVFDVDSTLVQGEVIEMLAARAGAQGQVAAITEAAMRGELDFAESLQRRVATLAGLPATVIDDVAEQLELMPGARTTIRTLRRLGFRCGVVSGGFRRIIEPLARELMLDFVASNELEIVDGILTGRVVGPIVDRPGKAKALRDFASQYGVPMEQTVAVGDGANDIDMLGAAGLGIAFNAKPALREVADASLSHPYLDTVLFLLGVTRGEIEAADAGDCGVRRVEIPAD

[Co+2] [Co^2+]
effect of divalent cation on MtSerB2 activity (MtSerB2 [1]): deactivates

N[C@@H](CO)C(=O)O [L-serine]
Activation factor (MtSerB2 [2]): Inhibition | molar ratio of L-serine and MtSerB2 at shift of dimer to tetramer (higher order oligomer) (MtSerB2 [3]): ~0.8 | IC50 (MtSerB2 [4]): 0.78 ± 0.08 µM | Imax (%) SerB2 (MtSerB2 [4]): 65% | Imax (%) PSPD [5]: 70% | IC50 ([5]; IC50 (µM) PSPD): 824 ± 39 µM

N[C@@H](CC(=O)O)C(=O)O [Asp]
Activation factor (MtSerB2 [2]): Inhibitor | IC50 (MtSerB2 [2]): 1620 ± 84 µM

NCC(=O)O [Gly]
Activation factor (MtSerB2 [2]): Inhibition | IC50 (MtSerB2 [2]): 381 ± 15 µM

C=C1[C@@H](O)[C@@H]2O[C@]3(CC[C@H](/C=C/[C@@H](C)[C@@H]4CC(C)=C[C@@]5(O[C@H](C[C@@](C)(O)C(=O)O)CC[C@H]5O)O4)O3)CC[C@H]2O[C@@H]1[C@@H](O)C[C@H](C)[C@H]1O[C@@]2(CCCCO2)CC[C@H]1C [Okadaic acid]
Imax (%) SerB2 (MtSerB2 [4]): 14% | Inhibition of phosphatase activity (MtSerB2 [4]): not able to inhibit the phosphatase activity | Imax (%) PSPD [5]: 22%

CN(C)CCCN1c2ccccc2Sc2ccc(Cl)cc21 [Chlorpromazine, Chlorpromazine Hydrochloride]
Imax (%) SerB2 (MtSerB2 [4]): 70% | Inhibition of phosphatase activity (MtSerB2 [4]): inhibition at nanomolar concentrations | type of inhibition (MtSerB2 [4]): non-competitive | IC50 (MtSerB2 [4]; read-out: IC50 (µM) SerB2): 0.92 ± 0.1 µM | Imax (%) PSPD [5]: 95% | IC50 ([5]; IC50 (µM) PSPD): ~6.25 µM and 6.25 µM

CC[C@H](C)[C@H](N)C(=O)O [Ile]
Activation factor (MtSerB2 [2]): Non modulator | % activation or IC50 (MtSerB2 [2]): No Change

[Mn+2] [Mn^2+]
effect of divalent cation on MtSerB2 activity (MtSerB2 [1]): deactivates

C[N+](C)(C)CCOP(=O)([O-])OCC(O)CO (stereo not drawn) [α-GPC, α-Glycerophosphorylcholine]
Imax (%) SerB2 (MtSerB2 [4]): 35% | Imax (%) PSPD [5]: 31%

N[C@@H](Cc1ccccc1)C(=O)O [Phe]
Activation factor (MtSerB2 [2]): Activation

C[C@H](N)C(=O)O [Ala]
Activation factor (MtSerB2 [2]): Inhibition | IC50 (MtSerB2 [2]): 3830 ± 234 µM

O=C(O)CN(CCN(CC(=O)O)CC(=O)O)CC(=O)O [EDTA]
Inhibition of phosphatase activity (MtSerB2 [4]): decrease of enzyme activity

CC(C)C[C@H](N)C(=O)O [Leu]
Activation factor (MtSerB2 [2]): Non modulator | % activation or IC50 (MtSerB2 [2]): No Change

N[C@@H](CS)C(=O)O [Cys]
Activation factor (MtSerB2 [2]): Non Modulator | % activation or IC50 (MtSerB2 [2]): No Change

N[C@@H](Cc1c[nH]cn1)C(=O)O [His]
Activation factor (MtSerB2 [2]): Inhibition | IC50 (MtSerB2 [2]): 4860 ± 218 µM

CC(C)[C@H](N)C(=O)O [Val]
Activation factor (MtSerB2 [2]): Inhibition | IC50 (MtSerB2 [2]): 3660 ± 212 µM

[Ca+2].[Cl-].[Cl-] [Ca^2+]
effect of divalent cation on MtSerB2 activity (MtSerB2 [1]): deactivates

C[N+](C)(C)CCOP(=O)(O)O [Phosphorylcholine]
Imax (%) SerB2 (MtSerB2 [4]): 10% | Imax (%) PSPD [5]: 14%

NC(=O)CC[C@H](N)C(=O)O [Gln]
Activation factor (MtSerB2 [2]): Inhibition | IC50 (MtSerB2 [2]): 432 ± 13 µM

N=C(N)NCCC[C@H](N)C(=O)O [Arg]
Activation factor (MtSerB2 [2]): Inhibition | IC50 (MtSerB2 [2]): 632 ± 14 µM

N[C@@H](Cc1c[nH]c2ccccc12)C(=O)O [Trp]
Activation factor (MtSerB2 [2]): Inhibition | IC50 (MtSerB2 [2]): 322 ± 23 µM

CSCC[C@H](N)C(=O)O [Met]
Activation factor (MtSerB2 [2]): Non modulator | % activation or IC50 (MtSerB2 [2]): No Change

N[C@@H](CP(=O)(O)O)C(=O)O [L- AP3, L-2-amino-3-phosphonopropionate]
Imax (%) SerB2 (MtSerB2 [4]): 23% | Imax (%) PSPD [5]: 21%

[F-].[Na+] [NaF, Sodium fluoride]
Imax (%) SerB2 (MtSerB2 [4]): 55% | Inhibition of phosphatase activity (MtSerB2 [4]): decrease of enzyme activity | IC50 (MtSerB2 [4]; read-out: IC50): ~3000 µM | IC50 (MtSerB2 [4]; read-out: IC50 (µM) SerB2): 3110 ± 155 µM | Imax (%) PSPD [5]: 72% | IC50 ([5]; read-out: IC50 (µM) PSPD): 2780 ± 216 µM

[Zn+2] [Zn^2+]
concentration level of inhibition (MtSerB2 [1]): inhibits the activity at nanomolar levels | effect of divalent cation on MtSerB2 activity (MtSerB2 [1]): deactivates

NC(CP(=O)(O)O)C(=O)O (racemic) [D,L- AP3, DL-2-Amino-3-Phosphonopropionic Acid]
Imax (%) SerB2 (MtSerB2 [4]): 22% | Imax (%) PSPD [5]: 19%

N[C@@H](CCC(=O)O)C(=O)O [Glu]
Activation factor (MtSerB2 [2]): Inhibition | IC50 (MtSerB2 [2]): 363 ± 20 µM

[Ni+2] [Ni^2+]
effect of divalent cation on MtSerB2 activity (MtSerB2 [1]): deactivates

NCCCC[C@H](N)C(=O)O [Lys]
% activation (MtSerB2 [2]): 40% | Activation factor (MtSerB2 [2]): Activation

N[C@@H](Cc1ccc(O)cc1)C(=O)O [Tyr]
Activation factor (MtSerB2 [2]): Activation

C[C@@H](O)[C@H](N)C(=O)O [Thr]
Activation factor (MtSerB2 [2]): Inhibition | IC50 (MtSerB2 [2]): 3460 ± 206 µM

NC(=O)C[C@H](N)C(=O)O [Asn]
Activation factor (MtSerB2 [2]): Non modulator | % activation or IC50 (MtSerB2 [2]): No Change

Sodium Vanadate
Imax (%) SerB2 (MtSerB2 [4]): 88% | Imax (%) PSPD [5]: 93%

O=C(O)[C@@H]1CCCN1 [Pro]
Activation factor (MtSerB2 [2]): Inhibition | IC50 (MtSerB2 [2]): > 5000 µM
